Tests used:
HLA-A0201 = HLA-A0201 (Homo sapiens, UniProt P04439, D140Y/D185E/D98H/E176V/E277Q/G131W/G231S/I119V/I121R/I166T/I218V/L300P/L318F/N151K/N90K/P208A/P217A/Q86G/Q94H/R138H/R169H/T345S); type: binding
[1] = system: SVYDFFVWL (TRP-2 180-188) reactive T cells; assay: T cell activation time course assay, IFNγ production (FACS), TRP-2 epitope; settings: for % CD8+ T cells producing IFN-γ peptide concentrations in picomolar 24H 0.5 / Geometric mean IFN-γ in arbitrary fluorescence units peptide concentrations in picomolar 24H 0.5 / % CD8+ T cells producing IFN-γ peptide concentrations in picomolar 48H 0.5 / Geometric mean IFN-γ in arbitrary fluorescence units peptide concentrations in picomolar 48H 0.5: peptide 0.5 pM; for % CD8+ T cells producing IFN-γ peptide concentrations in picomolar 24H 50 / Geometric mean IFN-γ in arbitrary fluorescence units peptide concentrations in picomolar 24H 50 / % CD8+ T cells producing IFN-γ peptide concentrations in picomolar 48H 50 / Geometric mean IFN-γ in arbitrary fluorescence units peptide concentrations in picomolar 48H 50: peptide 50 pM; for % CD8+ T cells producing IFN-γ peptide concentrations in picomolar 24H 5·10^3 / Geometric mean IFN-γ in arbitrary fluorescence units peptide concentrations in picomolar 24H 5·10^3 / % CD8+ T cells producing IFN-γ peptide concentrations in picomolar 48H 5·10^3 / Geometric mean IFN-γ in arbitrary fluorescence units peptide concentrations in picomolar 48H 5·10^3: peptide 5·10^3 pM

Substance | % inhibition at T=4H and T=24H FP 4h (HLA-A0201) [%] | % inhibition at T=4H and T=24H FP 24h (HLA-A0201) [%] | % CD8+ T cells producing IFN-γ peptide concentrations in picomolar 24H 0.5 [1] [%] | Geometric mean IFN-γ in arbitrary fluorescence units peptide concentrations in picomolar 24H 0.5 [1] | % CD8+ T cells producing IFN-γ peptide concentrations in picomolar 24H 50 [1] [%] | Geometric mean IFN-γ in arbitrary fluorescence units peptide concentrations in picomolar 24H 50 [1] | % CD8+ T cells producing IFN-γ peptide concentrations in picomolar 24H 5·10^3 [1] [%] | Geometric mean IFN-γ in arbitrary fluorescence units peptide concentrations in picomolar 24H 5·10^3 [1] | % CD8+ T cells producing IFN-γ peptide concentrations in picomolar 48H 0.5 [1] [%] | Geometric mean IFN-γ in arbitrary fluorescence units peptide concentrations in picomolar 48H 0.5 [1] | % CD8+ T cells producing IFN-γ peptide concentrations in picomolar 48H 50 [1] [%] | Geometric mean IFN-γ in arbitrary fluorescence units peptide concentrations in picomolar 48H 50 [1] | % CD8+ T cells producing IFN-γ peptide concentrations in picomolar 48H 5·10^3 [1] [%] | Geometric mean IFN-γ in arbitrary fluorescence units peptide concentrations in picomolar 48H 5·10^3 [1]
[CSME][NVA]YDFFVW[PRG] | 78 | 78 | 0 | 67 arbitrary fluorescence units | 6 | 80 arbitrary fluorescence units | 26 | 175 arbitrary fluorescence units | 1 | 93 arbitrary fluorescence units | 1 | 67 arbitrary fluorescence units | 26 | 130 arbitrary fluorescence units
[PHG][NVA]YDFFVW[ALG] | 76 | 73 | 0 | 84 arbitrary fluorescence units | 6 | 71 arbitrary fluorescence units | 35 | 185 arbitrary fluorescence units | 1 | 64 arbitrary fluorescence units | 1 | 64 arbitrary fluorescence units | 22 | 142 arbitrary fluorescence units
[PHG][NVA]YDFFVWL | 79 | 76 | 0 | 76 arbitrary fluorescence units | 15 | 94 arbitrary fluorescence units | 29 | 263 arbitrary fluorescence units | 0 | 85 arbitrary fluorescence units | 2 | – | 30 | 188 arbitrary fluorescence units
[PHG][2-AOC]YDFFVWL | 90 | 75 | 0 | 85 arbitrary fluorescence units | 14 | 95 arbitrary fluorescence units | 30 | 224 arbitrary fluorescence units | 1 | 75 arbitrary fluorescence units | 3 | – | 33 | 184 arbitrary fluorescence units
[am-phg][NVA]YDFFVW[PRG] | 88 | 80 | 0 | 64 arbitrary fluorescence units | 7 | 77 arbitrary fluorescence units | 26 | 181 arbitrary fluorescence units | 0 | 71 arbitrary fluorescence units | 1 | 57 arbitrary fluorescence units | 23 | 132 arbitrary fluorescence units
[PHG][2-AOC]YDFFVW[PRG] | 83 | 78 | 0 | 95 arbitrary fluorescence units | 1 | 68 arbitrary fluorescence units | 20 | 120 arbitrary fluorescence units | 1 | 79 arbitrary fluorescence units | 0 | 78 arbitrary fluorescence units | 0 | 78 arbitrary fluorescence units
[CSME][2-AOC]YDFFVW[PRG] | 98 | 89 | 0 | 67 arbitrary fluorescence units | 1 | 73 arbitrary fluorescence units | 7 | 84 arbitrary fluorescence units | 0 | 67 arbitrary fluorescence units | 0 | 6 arbitrary fluorescence units | 0 | 72 arbitrary fluorescence units
[PHG][NVA]YDFFVW[PRG] | 83 | 78 | 1 | 89 arbitrary fluorescence units | 6 | 73 arbitrary fluorescence units | 33 | 183 arbitrary fluorescence units | 0 | 66 arbitrary fluorescence units | 1 | 61 arbitrary fluorescence units | 21 | 139 arbitrary fluorescence units
[PHG][CpALA]YDFFVWL | 77 | 75 | 1 | 71 arbitrary fluorescence units | 12 | 87 arbitrary fluorescence units | 30 | 221 arbitrary fluorescence units | 0 | 70 arbitrary fluorescence units | 6 | – | 34 | 183 arbitrary fluorescence units
[am-phg][NVA]YDFFVWL | 79 | 77 | 1 | 59 arbitrary fluorescence units | 26 | – | 34 | 326 arbitrary fluorescence units | 1 | 78 arbitrary fluorescence units | 18 | – | 40 | 255 arbitrary fluorescence units

Source: patent EP2649091B1, “IMMUNE RESTRICTED PEPTIDES WITH INCREASED EFFICACY” (Stichting Het Nederlands Kanker Instituut, priority 2010, dated 2012)
